Measured values from PMC7022392, “Chemoenzymatic Synthesis of Enantiomeric, Bicyclic δ-Halo-γ-lactones with a Cyclohexane Ring, Their Biological Activity and Interaction with Biological Membranes” (Biomolecules, 2020).
Converted amounts (≈) assume the structure as drawn. Like-named read-outs stand apart in the source and are kept apart here.

What was measured:
[1] = test system: Proteus mirabilis ATCC 35659; assay: Disc diffusion antimicrobial test; type: cell-based; conditions: includes 6 mm disc, 24 h at 37 °C, racemic compounds
[2] = test system: Escherichia coli ATCC 25922; assay: Disc diffusion antimicrobial test; type: cell-based; conditions: includes 6 mm disc, 24 h at 37 °C, racemic compounds
Protocol: (§1) The antimicrobial activity of racemic halolactones were tested towards three bacterial strains classified as Gram-negative (Escherichia coli ATCC 25922, Pseudomonas aeruginosa ATCC 27853, Proteus mirabilis ATCC […]) and Gram-positive (Bacillus cereus ATCC 10876) and two fungal strains (Candida albicans ATCC 10231 and Aspergillus brasiliensis ATCC 16404). The microorganisms were supplied by Pasteur Institute of Algiers (Algeria).
(§2) The tests were carried out using the disc diffusion method. Briefly, overnight microbial cultures were adjusted to 0.5 MacFarland turbidity standards and spread in Petri dishes containing Mueller–Hinton and Sabouraud media for bacteria and fungi, respectively. The paper discs (6 mm diameter) was sterilized and impregnated with lactone dissolved in DMSO. Then, the discs were placed on the inoculated agar. The negative controls were discs immersed in pure DMSO. The plates were incubated for 24 h at 37 °C (bacteria) and for 48 h at 25 °C (yeast) and 5–7 days for fungi. Then, the inhibition zone diameters were determined in millimeters (including disc diameter of 6 mm). The test was carried out in triplicates.

[3] = test system: Bacillus cereus ATCC 10876; assay: Disc diffusion antimicrobial test; type: cell-based; conditions: includes 6 mm disc, 24 h at 37 °C, racemic compounds
Protocol: as §1, §2

[4] = test system: CLB70 (canine B-cell chronic leukemia); assay: Antiproliferative activity (formazan viability); type: cell-based; conditions: mean ± SD
Protocol: (§3) The GL-1 (canine B-cell leukemia) was obtained from Yasuhito Fujino and Hajime Tsujimoto from the Department of Veterinary Internal Medicine University of Tokyo [27], the CLB70 (canine B-cell chronic leukemia) was described earlier by Pawlak et al.. The GL-1 cells were maintained in RPMI 1640 medium with 10% fetal bovine serum (FBS), 100 µg/mL streptomycin, 100 U/mL penicillin and 2 mM L-glutamine (Sigma-Aldrich, Stainheim, Germany). The CLB70 cell line was maintained in Advanced RPMI (Gibco) medium with 100 µg/mL streptomycin, 100 U/mL penicillin and 20% heat-inactivated FBS. Cells were cultured at 37 °C in the incubator with 95% humidified atmosphere and 5% CO2. The antiproliferative activity was tested according to the procedure described previously. The tested lactones were prepared within a concentration range of 6.25–50 µg/mL in the culture medium (DMSO concentration was less than 1% in each dilution). The activity curves used to calculate IC50 are presented in the (Supplementary information Figures S7–S18). The optical density of formed formazan in untreated control cells was assigned as 100%. Viability of test samples was calculated as: % Viability = (average OD for test group/average OD for control group) × 100. The results were determined from more than 3 independent experiments (four wells each) and presented as mean IC50 value ± SD.

[5] = test system: GL-1 (canine B-cell leukemia); assay: Antiproliferative activity (formazan viability); type: cell-based; conditions: GL-1 cell line, mean ± SD
Protocol: as §3

[6] = Canis lupus familiaris, CLB70, CLB70 cell line, read-out: IC50
[7] = Canis lupus familiaris, B-cell, read-out: IC50

Structure (SMILES) | diameter of inhibition zone [1] | IC50 [4, 6] | IC50 [5, 7] | melting point | also measured
CC(I)C12CCCCC1CC(=O)O2 (racemic) [rac-6, 1-(1′-Iodoethyl)-9-Oxabicyclo[4.3.0]nonan-8-one] | 11 ± 0.00 mm |  |  |  | inhibition zone [2]: 7 ± 0.00 mm; inhibition zone [3]: 12 ± 0.00 mm
CC(Br)C12CCCCC1CC(=O)O2 (racemic) [rac-7, 1-(1′-Bromoethyl)-9-Oxabicyclo[4.3.0]nonan-8-one] | 12 ± 0.35 mm |  |  |  | inhibition zone [2]: 9 ± 0.00 mm; inhibition zone [3]: 8 ± 0.00 mm
C[C@@H](I)[C@]12CCCC[C@H]1CC(=O)O2 [6a, (−)-(1S,6S,1′R)-1-(1′-Iodoethyl)-9-oxabicyclo[4.3.0]nonan-8-one] |  | 19.6 ± 0.51 µg/mL (≈ 66.6 µM) | 13.8 ± 1.08 µg/mL (≈ 46.8 µM) | 104 to 107 °C | 
C[C@H](I)[C@@]12CCCC[C@@H]1CC(=O)O2 [6b, (+)-(1R,6R,1′S)-1-(1′-Iodoethyl)-9-oxabicyclo[4.3.0]nonan-8-one] |  | 19.93 ± 0.07 µg/mL (≈ 67.8 µM) | 14.5 ± 2.38 µg/mL (≈ 49.4 µM) |  | 
C[C@@H](Br)[C@]12CCCC[C@H]1CC(=O)O2 [7a, (−)-(1S,6S,1′R)-1-(1′-Bromoethyl)-9-oxabicyclo[4.3.0]nonan-8-one] |  | 19.4 ± 0.35 µg/mL (≈ 78.5 µM) | 15.6 ± 0.79 µg/mL (≈ 62.9 µM) | 44 to 48 °C | 
C[C@H](Br)[C@@]12CCCC[C@@H]1CC(=O)O2 [7b, (+)-(1R,6R,1′S)-1-(1′-Bromoethyl)-9-oxabicyclo[4.3.0]nonan-8-one] |  | 28.6 ± 4.89 µg/mL (≈ 116 µM) | 14.9 ± 1.93 µg/mL (≈ 60.5 µM) |  | 
C[C@@H](Cl)[C@]12CCCC[C@H]1CC(=O)O2 [8a, (−)-(1S,6S,1′R)-1-(1′-Chloroethyl)-9-oxabicyclo[4.3.0]nonan-8-one] |  | 23.9 ± 5.14 µg/mL (≈ 118 µM) | 17.2 ± 3.62 µg/mL (≈ 84.7 µM) | 37 to 40 °C | 
C[C@H](Cl)[C@@]12CCCC[C@@H]1CC(=O)O2 [8b, (+)-(1R,6R,1′S)-1-(1′-Chloroethyl)-9-oxabicyclo[4.3.0]nonan-8-one] |  | 11.4 ± 0.4 µg/mL (≈ 56.2 µM) | 18.4 ± 1.46 µg/mL (≈ 90.9 µM) |  | IC50 ([4]; CLB70 cell line): 18.43 ± 1.46 µg/mL (≈ 90.9 µM); IC50 [5]: 11.40 ± 0.40 µg/mL (≈ 56.2 µM)
COc1cc([C@@H]2c3cc4c(cc3[C@@H](O[C@@H]3O[C@@H]5CO[C@@H](C)O[C@H]5[C@H](O)[C@H]3O)[C@H]3COC(=O)[C@H]23)OCO4)cc(OC)c1O [Etoposide, reference compound] |  | 14.3 ± 2.83 µg/mL (≈ 24.3 µM) | 4.4 ± 1.14 µg/mL (≈ 7.48 µM) |  | 
CC(Cl)C12CCCCC1CC(=O)O2 (centres unmarked) [compound 8, 1-(1′-Chloroethyl)-9-Oxabicyclo[4.3.0]nonan-8-one] | 12 ± 0.00 mm |  |  |  | 
